Assay results as given in patent US11524960B2, “Heterobicyclic inhibitors of MAT2A and methods of use for treating cancer” (AGIOS PHARMACEUTICALS, INC., priority 2018, dated 2022).

Columns and labels:
MAT2A homodimer = target: T1, MAT2A homodimer (Homo sapiens, UniProt P31153); assay: Biochemical assay: inhibition of MAT2A (phosphate release, PiColorLock Gold); conditions: MAT2A IC50 score; read-out: Enzyme Inhibition (Example 275)
T1 construct: inferred from Ni sepharose purification and imidazole elution; made in house; host or cells: Sf9 insect cells, recombinant baculovirus (Bac to Bac, pFASTBAC1)
Summary of the method: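 Phosphate formed alongside SAM was read with PiColorLock Gold and quantified against a potassium phosphate standard curve. Reactions ran 60 min at 25 °C after adding a substrate mix of 500 μM ATP and 400 μM L-methionine (mix concentrations). Compound had first been preincubated 60 min with recombinant Sf9-derived MAT2A homodimer ([…]) in pH 8.0 Tris buffer containing MgCl2, KCl, EDTA and BSA.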

HCT116 MTAP−/− = assay: Inhibition of cellular proliferation (Cell Titer Glo), HCT116 MTAP−/−; assay type: cell-based, human; conditions: Homo sapiens, HCT-116, 96 h, 4 days, IC50 score, read-out: 4 Day Relative Growth Inhibition (MTAP −/−; Example 277)
Summary of the method: (§1)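 Proliferation was read as ATP luminescence (Cell Titer Glo) after a 4-day, 37 °C exposure of HCT116 cells differing only in MTAP deletion status. Dosing was 10 points, 3-fold steps, added 24 h post-plating; signal minus blank, relative to 0.2% DMSO control wells, was plotted against log molar concentration.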

[1] = tested on: SAM in HCT116 human colon carcinoma cell line engineered to delete the MTAP gene (MTAP −/−); assay: Cellular assay of target engagement (SAM) by LC-MS/MS; assay type: cell-based; conditions: Homo sapiens, HCT-116, 72 h, IC50 score, read-out: Cell 72 h SAM Inhibition (MTAP −/−; Example 276)
Summary of the method: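 Intracellular SAM, the MAT2A product, was measured by quantitative LC-MS/MS against a d3-SAM standard in methanol/acetic acid extracts. Extracts came from HCT116 MTAP −/− cells exposed for 72 h at 37 °C to a ten-point, threefold dilution series of compound, added one day after seeding.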

HCT116 MTAP+/+ = assay: Inhibition of cellular proliferation (Cell Titer Glo), HCT116 MTAP+/+; assay type: cell-based, human; conditions: Homo sapiens, HCT-116, 96 h, 4 days, IC50 score, read-out: 4 Day Relative Growth Inhibition (MTAP +/+; Example 277)
Summary of the method: as §1

T1 sequence (P31153 whole entry): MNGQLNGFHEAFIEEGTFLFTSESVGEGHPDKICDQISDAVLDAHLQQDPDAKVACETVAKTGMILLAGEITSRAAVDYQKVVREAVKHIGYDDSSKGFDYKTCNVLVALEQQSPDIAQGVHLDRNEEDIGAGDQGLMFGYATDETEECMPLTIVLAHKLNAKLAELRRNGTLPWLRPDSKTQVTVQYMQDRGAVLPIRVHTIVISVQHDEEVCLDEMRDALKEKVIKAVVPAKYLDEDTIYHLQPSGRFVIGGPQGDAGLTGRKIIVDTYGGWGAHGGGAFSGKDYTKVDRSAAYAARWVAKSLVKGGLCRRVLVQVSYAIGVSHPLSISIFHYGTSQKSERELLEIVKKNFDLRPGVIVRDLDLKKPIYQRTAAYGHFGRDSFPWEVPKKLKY

| Compound | IC50 (MAT2A homodimer) [nM] | IC50 (HCT116 MTAP−/−) [nM] | IC50 [1] [nM] | IC50 (HCT116 MTAP+/+) [nM] |
| --- | --- | --- | --- | --- |
| CN(C)CCn1cc2cc(-n3cc4cnc(NCC(F)(F)F)nc4c(-c4ccc(Cl)cc4)c3=O)ccc2n1 [Example 137, 8-(4-chlorophenyl)-6-(2-(2-(dimethylamino)ethyl)-2H-indazol-5-yl)-2-((2,2,2-trifluoroethyl)amino)pyrido[4,3-d]pyrimidin-7(6H)-one] | < 100 | 100 to 10000 | 100 to 1000 | > 10000 |
| COc1ccc(-n2cc3cnc(NCC(F)(F)F)nc3c(-c3ccc(C4CC4)nc3)c2=O)cc1 [Example 198, 8-(6-cyclopropylpyridin-3-yl)-6-(4-methoxyphenyl)-2-((2,2,2-trifluoroethyl)amino)pyrido[4,3-d]pyrimidin-7(6)-one] | < 100 | 100 to 10000 | 100 to 1000 | > 10000 |
| CCOc1ccc2cn(-c3ccc(OC)cc3)c(=O)c(-c3ccc(C)nc3)c2n1 [Example 114-A] | < 100 | < 100 | < 100 | 100 to 10000 |
| Cn1cc2cc(-n3cc4ccc(SCC(F)(F)F)nc4c(-c4ccc(Cl)cc4)c3=O)ccc2n1 [Example 209, 8-(4-chlorophenyl)-6-(2-methyl-2H-indazol-5-yl)-2-((2,2,2-trifluoroethyl)thio)-1,6-naphthyridin-7(6H)-one] | < 100 | < 100 | < 100 | > 10000 |
| Cn1cc2cc(-n3cc4ncc(OCC(F)F)nc4c(-c4ccc(OC(F)(F)F)nc4)c3=O)ccc2n1 [Example 143-A] | < 100 | < 100 | < 100 | 100 to 10000 |

Other lines, results leading:

| IC50 (MAT2A homodimer) [nM] | IC50 (HCT116 MTAP−/−) [nM] | IC50 [1] [nM] | IC50 (HCT116 MTAP+/+) [nM] | Compound |
| --- | --- | --- | --- | --- |
| < 100 | < 100 | < 100 | > 10000 | Cn1cnc2ccc(-n3cc4ccc(NCC(F)(F)F)nc4c(-c4ccc(Cl)cc4)c3=O)cc21 [Example 234, 8-(4-chlorophenyl)-6-(1-methyl-1H-benzo[d]imidazol-6-yl)-2-(2,2,2-trifluoroethylamino)-1,6-naphthyridin-7(6H)-one] |
| < 100 | < 100 | < 100 | 100 to 10000 | CCOc1ccc2cn(-c3ccc4nccnc4c3)c(=O)c(-c3ccc(Cl)cc3)c2n1 [Example 244, 8-(4-chlorophenyl)-2-ethoxy-6-(quinoxalin-6-yl)-1,6-naphthyridin-7(6H)-one] |
| < 100 | < 100 | < 100 | > 10000 | Cc1c2cc(-n3cc4ccc(NCC(F)(F)F)nc4c(-c4ccc(Cl)cc4)c3=O)ccc2nn1C [Example 237, 8-(4-chlorophenyl)-6-(2,3-dimethyl-2H-indazol-5-yl)-2-(2,2,2-trifluoroethylamino)-1,6-naphthyridin-7(6H)-one] |
